Source: US8471041B2 (priority 2010, dated 2013)
≈ marks a conversion by molar mass, not a printed value.

Assays:
physchem [1] = settings: water
physchem [2] = settings: organic solvent or mixture

O=C(CBr)N1CC([N+](=O)[O-])([N+](=O)[O-])C1 [ABDNAZ, N-(bromoacetyl)-3,3-dinitroazetidine]
solubility (physchem [1]): 0.3 to 1.3 mg/mL (≈ 1.12 to 4.85 mM) | solubility (physchem [2]): ~30 mg/mL (≈ 112 mM)
